Data set [1] in a line: Stability under high humidity. Format: physicochemical. The text has this: The semihydrate crystal obtained in Example 1 was placed under the condition of relative humidity of 90%±5% for 10 days, and samples were taken on the 5th and 10th days.
Utidelone anhydrous crystal was placed under the condition of relative humidity of 90±5% for 10 days. Samples were taken on the 5th and 10th days. The moisture content increased and the moisture absorption was obvious.

A short description of data set [2]: PK study on intravenous administration of the pharmaceutical composition containing Utidelone semihydrate crystal. It is filed as in vivo. The following applies: for MRT / AUC(0-t) / half-life: human, in vivo, iv, 40 mg/m2, intravenous infusion 40 mg/m2 once a day for 5 days; for AUC(0-t): read-out: AUC(0-24); for half-life: read-out: elimination half-life t½ in plasma (converted); for apparent volume of distribution / plasma clearance CL: intravenous infusion 40 mg/m2 once a day for 5 days. The procedure: Utidelone injection was prepared with Utidelone crystals (crystal A or mixed crystals containing crystal A) and 50% v/v absolute ethanol (USP), 30% v/v propylene glycol (USP) and 20% v/v polyoxyl castor oil 1 (Cremophor EL or ELP) as a solubilizer. The injection has low water content and high stability.

The nature of the next data set: Solubility test. It is filed as physicochemical. The following applies: thermodynamic from solid.
Data set [3] is described as follows: Stability under strong light (light box). Format: physicochemical. The conditions noted are these: 4500 lx±500 lx, 10 days. The text has this:
The semihydrate crystal obtained in Example 1 was placed in a light box, and placed for 10 days under the condition that the light intensity was 4500 lx±500 lx.

Data set [4] in a line: Stability in 0.1N hydrochloric acid solution. Format: physicochemical. The procedure:
The semihydrate crystal obtained in Example 1 was placed in a 0.1N hydrochloric acid solution, and the crystal was stable: no obvious degradation impurities were produced. Solubility >5 mg/ml.

The nature of data set [5]: Stability test of the semihydrate crystal under storage conditions (temperature). It is filed as physicochemical. The procedure: Stability test: The stability test of the semihydrate crystal was carried out under the following conditions:
Storage condition 1: 2-25° C., stored in a sealed state for more than 3 years, confirmed by NMR, HPLC, X-ray powder diffraction and infrared spectrum analysis, etc., the semihydrate crystal was stable (no changes in content, no impurities due to degradation, no changes in appearance and physicochemical properties).
Storage Condition 2: 25° C., 60%±10% RH, unsealed storage for more than 3 days, after the sample was continued to be stored at 25° C. for 1 year, it was confirmed by NMR, HPLC, X-ray powder diffraction and infrared spectrum analysis, etc., the semihydrate crystal was stable (no changes in content, no impurities due to degradation, no changes in appearance and physicochemical properties).
Storage condition 3: Stored in a sealed state at 40° C. for more than 2 years. It was confirmed by NMR, HPLC, X-ray powder diffraction and infrared spectrum analysis, etc., the semihydrate crystal was stable (no changes in content, no impurities due to degradation, no changes in appearance and physicochemical properties).
Storage Condition 4: Stored at 60° C. for more than 1 year. It was confirmed by NMR, HPLC, X-ray powder diffraction and infrared spectrum analysis, etc., the semihydrate crystal was stable (no changes in content, no impurities due to degradation, no changes in appearance and physicochemical properties).

The mark [6] stands for this setting: relative humidity 90%±5%, 10 days, samples on 5th and 10th days.
Where [7] appears, read: high humidity conditions (summary statement).

Read-outs that look alike come from different tables or passages of the source.

With `C/C1=C/C[C@@H](/C(C)=C/c2csc(C)n2)OC(=O)C[C@H](O)C(C)(C)C(=O)[C@H](C)[C@@H](O)[C@@H](C)CCC1` [Utidelone anhydrous crystal], the Moisture content result in data set [1] (setting [6]) was “increased”. Besides, the Moisture absorption result in data set [1] (relative humidity 90±5%, 10 days, samples on 5th and 10th days) was “obvious”.
For the molecule `C/C1=C/C[C@@H](/C(C)=C/c2csc(C)n2)OC(=O)C[C@H](O)C(C)(C)C(=O)[C@H](C)[C@@H](O)[C@@H](C)CCC1` [Utidelone], the “Accumulation in the body after continuous administration” value in data set [2] (40 mg/m2 once a day for 5 days, first vs last administration) was “did not accumulate”. Moreover, in data set [2] (1st day), the MRT – broadly, the average time that molecules of a dose stay in the body – is 4.5 ± 0.8 h; the AUC(0-t) is 4180 ± 1010 ng·h/mL; the half-life (in general, the time in which the quantity being followed falls by half) was 8.6 ± 0.1 h; the “apparent volume of distribution” value came out at 114.0±35.2 L/m2. Further, the “plasma clearance CL” value in data set [2] (1st day) is on record as 9.2±2.7 L/h/m2. Moreover, in data set [2] (5th day), the mean residence time MRT stood at 5.1 ± 0.7 h, the AUC(0-t) stood at 4550 ± 1630 ng·h/mL, the half-life is 8.2 ± 1.1 h and the “apparent volume of distribution” value is 109.1±62.6 L/m2. Moreover, the “plasma clearance CL” value in data set [2] (5th day) was determined as 8.9±3.9 L/h/m2.
On to `C/C1=C/C[C@@H](/C(C)=C/c2csc(C)n2)OC(=O)C[C@H](O)C(C)(C)C(=O)[C@H](C)[C@@H](O)[C@@H](C)CCC1` [semihydrate crystal], for which the solubility (usually the concentration that dissolves in the medium under given conditions) in the data set “Solubility test” (0.1N hydrochloric acid solution, simulated gastric fluid) is more than 5 mg/mL; in the data set “Solubility test” (50% ethanol, 30% propylene glycol, 20% castor oil, organic solvent or mixture), more than 100 mg/mL; in “Solubility test” (DMSO, organic solvent or mixture), more than 50 mg/mL; in “Solubility test” (benzyl alcohol, organic solvent or mixture) it was more than 50 mg/mL; in “Solubility test” (ethanol, organic solvent or mixture) it was more than 50 mg/mL; in “Solubility test” (methanol, organic solvent or mixture), more than 50 mg/mL. For the same molecule, the solubility in the data set “Solubility test” (propylene glycol, organic solvent or mixture) was more than 50 mg/mL. For the same molecule, the Moisture content entry in data set [3] and in data set [1] (setting [6]) was “basically unchanged” in each case. Moreover, the “Stability (content, degradation impurities, appearance, physicochemical properties)” value was “stable” in data set [3]; “stable” in data set [1] (setting [6]); “stable” in data set [5] (Storage condition 1: 2-25° C., sealed, more than 3 years, NMR, HPLC, XRPD, IR); “stable” in data set [5] (Storage condition 2: 25° C., 60%±10% RH, unsealed more than 3 days, then 25° C. for 1 year); “stable” in data set [5] (Storage condition 3: sealed, 40° C., more than 2 years); “stable” in data set [5] (Storage condition 4: 60° C., more than 1 year). Moreover, the “Stability (degradation impurities)” value in data set [4] is listed as “stable”. Further, the Stability result in data set [1] (setting [7]) was “very stable”. Moreover, the Water content entry in data set [1] (setting [7]) is “does not change significantly”. Moreover, the “Storage time without changes in substance” value is “more than 3 years” in data set [5] (40° C.) and “more than 1 year” in data set [5] (60° C.).

The values are drawn from patent US12617781B2, “Utidelone semi-hydrated single crystal and preparation method therefor and use thereof” (Beijing Biostar Pharmaceuticals Co., Ltd., priority 2020, dated 2026).
